Experimental findings from patent US11738031B2, “Compositions and methods for preventing or treating muscle conditions” (The Board of Trustees of the Leland Stanford Junior …, priority 2017, dated 2023) are described below.

Test [1] deals with endogenous MuSCs in TA muscle. Nature of the test: Endogenous MuSC BLI in Pax7CreERT2;Rosa26-LSL-Luc mice after cardiotoxin injury. The class given is in vivo, mouse. Particulars: 13 nmol three days post-cardiotoxin, BLI days 3-14. On the procedure: Bioluminescence imaging: We performed bioluminescence imaging (BLI) using a Xenogen-100 system, as previously described^1,5,6. Briefly, we anesthetized mice using isofluorane inhalation and administered 120 μL D-luciferin (0.1 mmol kg^−1, reconstituted in PBS; Caliper LifeSciences) by intraperitoneal injection. We acquired BLI using a 60 s exposure at F-stop=1.0 at 5 minutes after luciferin injection. Digital images were recorded and analyzed using Living Image software (Caliper LifeSciences). We analyzed images with a consistent region-of-interest (ROI) placed over each hindlimb to calculate a bioluminescence signal. We calculated a bioluminescence signal in radiance (p s^−1 cm^−2 sr^−1) value of 10^4 to define an engraftment threshold. This radiance threshold of 10^4 is approximately equivalent to the total flux threshold in p/s reported previously. This BLI threshold corresponds to the histological detection of one or more GFP+ myofibers^1,5,6. We performed BLI imaging every week after transplantation. […]
We performed bioluminescence imaging (BLI) using a Xenogen-100 system, as previously described (24, 26, 27, 30). […] Digital images were recorded and analyzed using Living Image software (Caliper LifeSciences). We analyzed images with a consistent region-of-interest (ROI) placed over each hindlimb to calculate a bioluminescence signal. We calculated a bioluminescence signal in radiance (p s^−1 cm^−2 sr^−1) value of 10^4 to define an engraftment threshold. […]
Bioluminescent Imaging: For bioluminescence imaging (BLI), we anesthetized mice using isofluorane inhalation and administered 120 μL D-luciferin (0.1 mmol kg^−1, reconstituted in PBS; Caliper LifeSciences) by intraperitoneal injection. […] Digital images were recorded and analyzed using Living Image software (Caliper LifeSciences). We analyzed images with a consistent region-of-interest (ROI) placed over each hindlimb to calculate a bioluminescence signal. We calculated a bioluminescence signal in radiance (p s^−1 cm^−2 sr^−1) value of 10^4 to define an engraftment threshold. […]

Test [2] deals with MuSCs transplanted into tibialis anterior (TA) muscles of recipient mice. Nature of the test: Muscle stem cell transplantation, engraftment by bioluminescence imaging (BLI). The class given is in vivo, mouse. Conditions: for BLI signal of engrafted MuSCs after secondary (notexin) injury: notexin re-injury one month after transplant.

Molecules are shown by their SMILES.

In the case of `CCCCC[C@H](O)/C=C/[C@H]1[C@H](O)CC(=O)[C@@H]1C/C=C\CCCC(=O)O` [PGE2, prostaglandin E2], in test [1], the “BLI of endogenous MuSCs after injury and PGE2/dmPGE2” value is reported as “in agreement with the histological data”. In addition, the “regenerative capacity of MuSCs coinjected with PGE2, by BLI” value in test [2] (250 GFP/Luc MuSCs into injured TAs of NSG mice (Example 3)) was “nearly two orders of magnitude”. For the same compound, the “regenerative capacity of cultured PGE2-treated young MuSCs by BLI” value in test [2] (acute 1-day PGE2 in culture, 250 cells transplanted on day 7 into NOD-SCID mice) is “enhanced by an order of magnitude”. Further, the “BLI signal of engrafted MuSCs after secondary (notexin) injury” value in test [2] was “spike in BLI signals”.
As to `CCCCC(C)(C)[C@H](O)/C=C/[C@H]1[C@H](O)CC(=O)[C@@H]1C/C=C\CCCC(=O)O` [dmPGE2, 16,16-dimethyl prostaglandin E2], the “BLI of endogenous MuSCs after injury and PGE2/dmPGE2” value in test [1] is “in agreement with the histological data”. For the same compound, the “engraftment of aged MuSCs coinjected with dmPGE2” value in test [2] (aged MuSCs, 250 cells, 13 nmol dmPGE2) is given as “significantly enhanced engraftment”. In addition, the “engraftment of young MuSCs coinjected with dmPGE2” value in test [2] (freshly isolated MuSCs, 250 cells, 13 nmol dmPGE2) is “significantly enhanced engraftment”. Also, in test [2], the “BLI signal of engrafted MuSCs after secondary (notexin) injury” value is reported as “further increased in response to notexin injury”.
